Experimental data as given in patent publication US20240180880A1, “METHODS OF USING EHMT2 INHIBITORS IN TREATING OR PREVENTING BLOOD DISORDERS” (Epizyme, Inc., priority 2017, published 2024).
Read-outs that look alike come from different tables or passages of the source.

System: 284 cell lines
Test: cells
Experimental: A screen of 284 cell lines to assess the antiproliferative effect of EHMT2 inhibition was conducted by treating cell lines in 384-well format with a half-log step dilutions of Compound 205 over 10 concentrations with a maximum concentration of 0.1% v/v DMSO. Cells were plated on Day 0 and treated with compound on Day 1. Culture medium was replaced on day 7 and cells redosed. After 10-day incubation, cells were fixed and stained with nuclear dye. Automated fluorescence microscopy was carried out using a Molecular Devices ImageXpress Micro XL high-content imager, and images were collected with a 4× objective. 16-bit TIFF images were acquired and analyzed with MetaXpress 5.1.0.41 software. Cell proliferation was measured by the fluorescence intensity of the incorporated nuclear dye. Cell count IC50 is the test compound concentration at 50% of maximal response of the untreated control.

CNc1cc(C)nc(Nc2ccc(OC)c(OCCCN3CCCC3)c2)n1 [Compound 205]
IC50 (BM-1604, read-out: Cell Count IC50, BM-1604, Prostate): > 10 µM
IC50 (C32TG, read-out: Cell Count IC50, C32TG, Skin, Melanoma): 1 to 10 µM
IC50 (CEM/C1, read-out: Cell Count IC50, CEM-C1, Hematopoietic, Leukemia): > 10 µM
IC50 (CML-T1, read-out: Cell Count IC50, CML-T1, Hematopoietic, Leukemia): 1 to 10 µM
IC50 (D341 Med, read-out: Cell Count IC50, D341 Med, Central Nervous System, Medulloblastoma): 1 to 10 µM
IC50 (HUH-6-clone5, read-out: Cell Count IC50, HUH-6 Clone 5, Liver): 1 to 10 µM
IC50 (Homo sapiens, 22Rv1, read-out: Cell Count IC50, 22Rv1, Prostate): 1 to 10 µM
IC50 (Homo sapiens, 639-V, read-out: Cell Count IC50, 639-V, Bladder): > 10 µM
IC50 (Homo sapiens, 647-V, read-out: Cell Count IC50, 647-V, Bladder): 1 to 10 µM
IC50 (Homo sapiens, 769-P, read-out: Cell Count IC50, 769-P, Kidney): 1 to 10 µM
IC50 (Homo sapiens, 786-0, read-out: Cell Count IC50, 786-O, Kidney): > 10 µM
IC50 (Homo sapiens, A101D, read-out: Cell Count IC50): 1 to 10 µM
IC50 (Homo sapiens, A 172, read-out: Cell Count IC50, A172, Central Nervous System, Glioma): 1 to 10 µM
IC50 (Homo sapiens, A204, read-out: Cell Count IC50, A204, Soft & Connective Tissue, Sarcoma): 0.01 to 0.1 µM
IC50 (Homo sapiens, A253, read-out: Cell Count IC50, A-253, Head and Neck): > 10 µM
IC50 (Homo sapiens, A498, read-out: Cell Count IC50, A498, Kidney): 1 to 10 µM
IC50 (Homo sapiens, A549, read-out: Cell Count IC50, A549, Lung, NSCLC): > 10 µM
IC50 (Homo sapiens, A673, read-out: Cell Count IC50, A-673, Soft & Connective Tissue, Sarcoma): > 10 µM
IC50 (Homo sapiens, A704, read-out: Cell Count IC50, A-704, Kidney): 1 to 10 µM
IC50 (Homo sapiens, A2058, read-out: Cell Count IC50, A2058, Skin, Melanoma): 1 to 10 µM
IC50 (Homo sapiens, A-375, read-out: Cell Count IC50, A375, Skin, Melanoma): 1 to 10 µM
IC50 (Homo sapiens, A-427, read-out: Cell Count IC50, A427, Lung, NSCLC): 1 to 10 µM
IC50 (Homo sapiens, A-431, read-out: Cell Count IC50, A431, Skin, Head and Neck): 1 to 10 µM
IC50 (Homo sapiens, ACHN, read-out: Cell Count IC50, ACHN, Kidney): 1 to 10 µM
IC50 (Homo sapiens, AN3-CA, read-out: Cell Count IC50, AN3 CA, Female GU, Uterus): > 10 µM
IC50 (Homo sapiens, ARH-77, read-out: Cell Count IC50, ARH-77, Hematopoietic, Myeloma): 1 to 10 µM
IC50 (Homo sapiens, ASPC1, read-out: Cell Count IC50, AsPC-1, Pancreas): 1 to 10 µM
IC50 (Homo sapiens, BE(2)-C, read-out: Cell Count IC50, BE(2)C, Central Nervous System, Neuroblastoma): > 10 µM
IC50 (Homo sapiens, BFTC-905, read-out: Cell Count IC50, BFTC-905, Bladder): 0.01 to 0.1 µM
IC50 (Homo sapiens, BHT-101, read-out: Cell Count IC50, BHT-101, Endocrine, Thyroid): 1 to 10 µM
IC50 (Homo sapiens, BPH-1, read-out: Cell Count IC50, BPH1, Prostate): > 10 µM
IC50 (Homo sapiens, BT-20, read-out: Cell Count IC50, BT20, Breast): > 10 µM
IC50 (Homo sapiens, BT-474, read-out: Cell Count IC50, BT474, Breast): 1 to 10 µM
IC50 (Homo sapiens, BT-549, read-out: Cell Count IC50, BT-549, Breast): > 10 µM
IC50 (Homo sapiens, BV-173, read-out: Cell Count IC50, BV-173, Hematopoietic, Leukemia): 1 to 10 µM
IC50 (Homo sapiens, BXPC-3, read-out: Cell Count IC50, BxPC-3, Pancreas): 1 to 10 µM
IC50 (Homo sapiens, BeWo, read-out: Cell Count IC50, BeWo, Placenta): > 10 µM
IC50 (Homo sapiens, C-4-II, read-out: Cell Count IC50, C-4 II, Female GU, Cervix): > 10 µM
IC50 (Homo sapiens, C-33-A, read-out: Cell Count IC50, C-33A, Female GU, Cervix): > 10 µM
IC50 (Homo sapiens, CA46, read-out: Cell Count IC50, CA46, Hematopoietic, Lymphoma): 1 to 10 µM
IC50 (Homo sapiens, CAKI-1, read-out: Cell Count IC50, Caki-1, Kidney): 1 to 10 µM
IC50 (Homo sapiens, CAKI-2, read-out: Cell Count IC50, Caki-2, Kidney): 1 to 10 µM
IC50 (Homo sapiens, CAL-27, read-out: Cell Count IC50, Cal 27, Head and Neck): 1 to 10 µM
IC50 (Homo sapiens, CAL-62, read-out: Cell Count IC50, CAL-62, Endocrine, Thyroid): > 10 µM
IC50 (Homo sapiens, CAMA-1, read-out: Cell Count IC50, CAMA-1, Breast): 1 to 10 µM
IC50 (Homo sapiens, CAPAN-1, read-out: Cell Count IC50, Capan-1, Pancreas): > 10 µM
IC50 (Homo sapiens, CCF-STTG1, read-out: Cell Count IC50, CCF-STTG1, Central Nervous System, Glioma): 1 to 10 µM
IC50 (Homo sapiens, CCRF-CEM, read-out: Cell Count IC50, CCRFCEM, Hematopoietic, Leukemia): > 10 µM
IC50 (Homo sapiens, CFPAC-1, read-out: Cell Count IC50, CFPAC-1, Pancreas): > 10 µM
IC50 (Homo sapiens, CGTH-W-1, read-out: Cell Count IC50, CGTH-W-1, Endocrine, Thyroid): > 10 µM
IC50 (Homo sapiens, CHL-1, read-out: Cell Count IC50, CHL-1, Skin, Melanoma): > 10 µM
IC50 (Homo sapiens, CHP-212, read-out: Cell Count IC50, CHP-212, Central Nervous System, Neuroblastoma): 0.1 to 1 µM
IC50 (Homo sapiens, COLO 201, read-out: Cell Count IC50, Colo 201, Colon): 1 to 10 µM
IC50 (Homo sapiens, COLO 205, read-out: Cell Count IC50, Colo 205, Colon): 1 to 10 µM
IC50 (Homo sapiens, COLO 320DM, read-out: Cell Count IC50, Colo 320DM, Colon): > 10 µM
IC50 (Homo sapiens, COLO-320-HSR, read-out: Cell Count IC50, Colo 320 HSR, Colon): > 10 µM
IC50 (Homo sapiens, COLO-829, read-out: Cell Count IC50, COLO 829, Skin, Melanoma): 1 to 10 µM
IC50 (Homo sapiens, COR-L23, read-out: Cell Count IC50, COR-L23, Lung, NSCLC): 1 to 10 µM
IC50 (Homo sapiens, COR-L105, read-out: Cell Count IC50, COR-L105, Lung, NSCLC): 1 to 10 µM
IC50 (Homo sapiens, Ca-Ski, read-out: Cell Count IC50, Ca Ski, Female GU, Cervix): 0.1 to 1 µM
IC50 (Homo sapiens, Calu-1, read-out: Cell Count IC50, Calu1, Lung, NSCLC): > 10 µM
IC50 (Homo sapiens, Calu-6, read-out: Cell Count IC50, Calu6, Lung, NSCLC): > 10 µM
IC50 (Homo sapiens, Caov-3, read-out: Cell Count IC50, CaOV3, Female GU, Ovary): 1 to 10 µM
IC50 (Homo sapiens, Capan-2, read-out: Cell Count IC50, Capan-2, Pancreas): > 10 µM
IC50 (Homo sapiens, ChaGo-K-1, read-out: Cell Count IC50, ChaGoK1, Lung, NSCLC): > 10 µM
IC50 (Homo sapiens, D283 Med, read-out: Cell Count IC50, D283 Med, Central Nervous System, Medulloblastoma): 1 to 10 µM
IC50 (Homo sapiens, DBTRG-05MG, read-out: Cell Count IC50, DBTRG-05MG, Central Nervous System, Glioma): 1 to 10 µM
IC50 (Homo sapiens, DLD-1, read-out: Cell Count IC50, DLD-1, Colon): > 10 µM
IC50 (Homo sapiens, DMS-53, read-out: Cell Count IC50, DMS53, Lung, SCLC): 0.1 to 1 µM
IC50 (Homo sapiens, DMS-114, read-out: Cell Count IC50, DMS114, Lung, SCLC): 1 to 10 µM
IC50 (Homo sapiens, DOHH-2, read-out: Cell Count IC50, DOHH-2, Hematopoietic, Lymphoma): 1 to 10 µM
